Values of other authors, collected in patent US12324827B2, “Combination therapy for the treatment of migraines” (The University of Chicago, priority 2019, dated 2025).

Tests used:
spreading depression = conditions: SD from KCl; pretreatment; cited from earlier work
[1] = system: trigeminal system neurons; conditions: in vivo; cited from earlier work

Compound | protection against SD over sham treatment (spreading depression) | CSD-based activation of Aδ fibers and C-fiber afferents in the trigeminal ganglion [1] | activation and sensitization of high threshold trigeminal system neurons after CSD [1] | direct inhibition of CSD [1] | wide dynamic range neurons of the caudal trigeminal nucleus [1]
CC1(C)O[C@@H]2[C@@H](CO[C@@]3(COS(N)(=O)=O)OC(C)(C)O[C@@H]23)O1 [topiramate, reference compound] | no more than a two-fold level of protection |  |  |  | 
TEV-48125: CGRP-mAb fremanezumab, humanized monoclonal anti-CGRP antibody |  | reduce CSD-based activation of Aδ fibers but not activation of C-fiber afferents | inhibited activation and sensitization | did not directly inhibit CSD | had no effect
